The values below come from patent US20230391739A1, “ARYL DERIVATIVES FOR TREATING TRPM3 MEDIATED DISORDERS” (Katholieke Universiteit Leuven, priority 2020, published 2023).

For orientation: IC50 means the midpoint of a concentration-inhibition curve. A lower IC50 goes with greater potency.

T1 sequence (J9SQF3 1-1709 isoform J9SQF3-12): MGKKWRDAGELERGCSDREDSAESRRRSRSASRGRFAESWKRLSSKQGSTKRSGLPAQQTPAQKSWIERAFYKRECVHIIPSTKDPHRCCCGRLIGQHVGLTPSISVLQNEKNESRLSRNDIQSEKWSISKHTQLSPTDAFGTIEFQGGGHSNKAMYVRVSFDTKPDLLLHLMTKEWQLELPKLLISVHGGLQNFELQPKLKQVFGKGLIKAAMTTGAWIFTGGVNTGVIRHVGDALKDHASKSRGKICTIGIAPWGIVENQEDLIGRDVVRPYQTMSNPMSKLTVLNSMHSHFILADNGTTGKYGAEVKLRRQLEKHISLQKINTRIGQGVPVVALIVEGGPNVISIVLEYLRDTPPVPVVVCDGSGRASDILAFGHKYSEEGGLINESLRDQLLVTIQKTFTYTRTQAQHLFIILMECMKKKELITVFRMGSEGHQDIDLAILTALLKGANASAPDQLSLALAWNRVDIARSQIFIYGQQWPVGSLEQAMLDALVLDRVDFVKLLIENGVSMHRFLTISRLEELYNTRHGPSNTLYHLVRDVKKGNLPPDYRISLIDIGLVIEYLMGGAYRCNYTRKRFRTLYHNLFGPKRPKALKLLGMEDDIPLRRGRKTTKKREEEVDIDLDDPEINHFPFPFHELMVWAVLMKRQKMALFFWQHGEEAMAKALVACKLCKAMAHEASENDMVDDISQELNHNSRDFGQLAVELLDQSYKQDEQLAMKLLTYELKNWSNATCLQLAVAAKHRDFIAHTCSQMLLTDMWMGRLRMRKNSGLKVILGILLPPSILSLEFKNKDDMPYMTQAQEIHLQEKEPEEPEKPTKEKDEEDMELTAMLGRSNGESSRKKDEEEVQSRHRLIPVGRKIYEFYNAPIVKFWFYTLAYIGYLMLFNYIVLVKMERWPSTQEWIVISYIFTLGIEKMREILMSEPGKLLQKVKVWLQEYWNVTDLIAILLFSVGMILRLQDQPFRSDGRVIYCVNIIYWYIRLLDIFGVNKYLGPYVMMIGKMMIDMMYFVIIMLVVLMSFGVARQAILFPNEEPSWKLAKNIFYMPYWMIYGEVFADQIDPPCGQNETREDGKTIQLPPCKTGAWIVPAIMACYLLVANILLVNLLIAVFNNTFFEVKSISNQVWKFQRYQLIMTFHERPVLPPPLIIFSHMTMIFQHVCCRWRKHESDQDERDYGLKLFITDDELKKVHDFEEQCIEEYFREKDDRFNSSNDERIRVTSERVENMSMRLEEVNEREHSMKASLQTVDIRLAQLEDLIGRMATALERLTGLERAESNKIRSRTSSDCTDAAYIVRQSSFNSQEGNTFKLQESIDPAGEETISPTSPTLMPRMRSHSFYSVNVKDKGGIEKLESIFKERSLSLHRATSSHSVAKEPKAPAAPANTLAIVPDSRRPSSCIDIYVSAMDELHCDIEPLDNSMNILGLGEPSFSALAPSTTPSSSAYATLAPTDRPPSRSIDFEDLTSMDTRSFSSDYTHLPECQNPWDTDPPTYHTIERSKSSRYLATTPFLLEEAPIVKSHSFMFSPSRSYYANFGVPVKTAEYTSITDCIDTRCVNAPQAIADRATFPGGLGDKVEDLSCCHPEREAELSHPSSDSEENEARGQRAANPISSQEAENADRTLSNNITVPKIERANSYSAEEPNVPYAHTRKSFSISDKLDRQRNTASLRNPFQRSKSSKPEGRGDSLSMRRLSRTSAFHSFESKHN

The assay addresses T1, mouse TRPM3α2 (mTRPM3) ion channel (Mus musculus, UniProt J9SQF3).
T1 construct: expressed in transfected cells; host or cells: flip-in HEK293
As to the kind of experiment: TRPM3 ion channel driven Ca2+ uptake, Fluo-4 AM assay, PS-stimulated (mTRPM3). The class given is cell-based. The conditions noted are these: TRPM3 overexpressing flip-in HEK293 cells stimulated with Pregnenolone sulfate (PS) 50 μM, activity ranges A, B, C. Here is the method: Monitoring the TRPM3 Ion Channel Driven Ca^2+ Uptake.
In order to monitor the inhibition of the mouse TRPM3α2 (mTRPM3) ion channel by the compounds of the invention, a cellular system making use of an mTRPM3alpha2 or hTRPM3 overexpressing cell line (flip-in HEK293) was used. The TRPM3 channel was stimulated/opened with Pregnenolone sulfate (PS) (50 μM) which results in Ca^2+ influx.
For mTRPM3, the intracellular Ca^2+ was measured with a Calcium responsive dye, Fluor-4 AM ester (Invitrogen). Cells were cultured until a confluence of 80-90%, washed with Versene (Invitrogen) and detached from the surface by a short incubation with 0.05% Trypsin (Invitrogen). The trypsination process was stopped by the addition of complete cell culture medium (DMEM, glutamax, 10% FCS, NEAA, Pen-Strep). Cells were collected and resuspended in Krebs buffer without Calcium at RT.
Prior the cell seeding (±2000 cells/well into a black, 384 well plate (Greiner)) the diluted compound was added in the assay plate, together with the PS dissolved in Krebs buffer containing Calcium. […] Directly after cell addition the plates were read on an Envision fluorescence reader (Perkin Elmer) by an Excitation of 485 nm and emission at 535 nm.
Channel inhibition was calculated compared to a non-PS stimulated control versus a condition stimulated with PS (50 μM) with vehicle. The ability of the compounds of the invention to inhibit this activity was determined as: Percentage inhibition=[1−((RFU determined for sample with test compound present−RFU determined for sample with positive control inhibitor) divided by (RFU determined in the presence of vehicle−RFU determined for sample with positive control inhibitor))]*100.
The activities of the Example compounds tested are depicted in the table below.
The compound `Cc1oc2ccc(OCc3ccc(F)cc3)cc2c1C(=O)N[C@H]1CCNC1` [Cpd 097, (S)-5-((4-fluorobenzyl)oxy)-2-methyl-N-(pyrrolidin-3-yl)benzofuran-3-carboxamide] returned an IC50 of less than 1000 nM.
Under `Cc1oc2ccc(OCc3cccc(Cl)c3)cc2c1C(=O)O` [Cpd 017, 5-((3-chlorobenzyl)oxy)-2-methylbenzofuran-3-carboxylic acid] stands 1000 to 20000 nM; under `Cc1oc2ccc(OCc3ccccc3F)cc2c1C(=O)NC1(C(N)=O)CCOC1` (single isomer, unassigned) [Cpd 323-En 1, N-(3-carbamoyltetrahydrofuran-3-yl)-5-((2-fluorobenzyl)oxy)-2-methylbenzofuran-3-carboxamide], less than 1000 nM.
Next, `Cc1oc2ccc(OCc3ccccc3)cc2c1C(=O)NCC1CCN(C(=O)OC(C)(C)C)CC1` [Cpd 253, tert-butyl 4-((5-(benzyloxy)-2-methylbenzofuran-3-carboxamido)methyl)piperidine-1-carboxylate]: more than 20000 nM; `Cc1oc2ccc(OCc3ccc(Cl)cc3)cc2c1C(=O)O` [Cpd 016, 5-((4-chlorobenzyl)oxy)-2-methylbenzofuran-3-carboxylic acid]: 1000 to 20000 nM; `Cc1oc2ccc(OC(C)c3ccccc3C(F)(F)F)cc2c1C(=O)N[C@H]1CCNC1` (mixture of isomers) [Cpd 220, rac-2-methyl-N—((R)-pyrrolidin-3-yl)-5-(1-(2-(trifluoromethyl)phenyl)ethoxy)benzofuran-3-carboxamide]: less than 1000 nM.
Compound `Cc1oc2ccc(OC(CO)c3ccccc3F)cc2c1C(=O)N[C@@H](CO)C(N)=O` (single isomer, unassigned) [Cpd 335-Dia 2] showed an IC50 of less than 1000 nM.
On to `Cc1oc2ccc(OCc3c(F)cccc3F)cc2c1C(=O)NC1(CO)CCOCC1` [Cpd 218, 5-((2,6-difluorobenzyl)oxy)-N-(4-(hydroxymethyl)tetrahydro-2H-pyran-4-yl)-2-methylbenzo-furan-3-carboxamide], for which the IC50 is less than 1000 nM.
The compound `Cc1oc2ccc(OCc3ccccc3C(F)(F)F)cc2c1C(=O)O` [Cpd 024, 2-methyl-5-((2-(trifluoromethyl)benzyl)oxy)benzofuran-3-carboxylic acid] yielded an IC50 of less than 1000 nM.
Next, `Cc1oc2c(C#N)cc(OCc3ccccc3)cc2c1C(=O)NC1CNCC1(F)F` (single isomer, unassigned) [Cpd 305-En 2, 5-(benzyloxy)-7-cyano-N-(4,4-difluoropyrrolidin-3-yl)-2-methylbenzofuran-3-carboxamide]: more than 20000 nM; `Cc1oc2ccc(OCc3ccccc3)cc2c1C(=O)NCC(c1ccccc1)N(C)C` (stereo not shown) [Cpd 216, 5-(benzyloxy)-N-(2-(dimethylamino)-2-phenylethyl)-2-methylbenzofuran-3-carboxamide]: 1000 to 20000 nM.
Under `Cc1oc2ccc(OCc3cccc(OC(F)(F)F)c3)cc2c1C(=O)NC1CCN(C)CC1` [Cpd 244, 2-methyl-N-(1-methylpiperidin-4-yl)-5-((3-(trifluoromethoxy)benzyl)oxy)benzofuran-3-carboxamide] stands 1000 to 20000 nM; under `Cc1oc2ccc(OCc3cccc(OC(F)(F)F)c3)cc2c1C(=O)N[C@H]1CCNC1` [Cpd 223, (S)-2-methyl-N-(pyrrolidin-3-yl)-5-((3-(trifluoromethoxy)benzyl)oxy)benzofuran-3-carboxamide], 1000 to 20000 nM.
For the compound `Cc1oc2cc(C#N)c(OCc3ccccc3)cc2c1C(=O)NC1CNCC1(F)F` (single isomer, unassigned) [Cpd 301-En 2, 5-(benzyloxy)-6-cyano-N-(4,4-difluoropyrrolidin-3-yl)-2-methylbenzofuran-3-carboxamide], the IC50 is more than 20000 nM.
In the case of `Cc1oc2ccc(OCc3ccccc3)cc2c1C(=O)NC1CCNCC1` [Cpd 074, 5-(benzyloxy)-2-methyl-N-(piperidin-4-yl)benzofuran-3-carboxamide], the IC50 was less than 1000 nM.
Next, `Cc1oc2ccc(OCc3cccc(CN)c3)cc2c1C(=O)NC1CCNC1=O` (stereo not shown) [Cpd 157, 5-((3-(aminomethyl)benzyl)oxy)-2-methyl-N-(2-oxopyrrolidin-3-yl)benzofuran-3-carboxamide]: more than 20000 nM; `Cc1cccc(COc2ccc3oc(C)c(C(=O)N[C@H]4CCNC4)c3c2)c1` [Cpd 084, (S)-2-methyl-5-((3-methylbenzyl)oxy)-N-(pyrrolidin-3-yl)benzofuran-3-carboxamide]: less than 1000 nM; `Cc1oc2ccc(OC(C)c3ccccc3)cc2c1C(=O)NC1(CO)CCOCC1` (single isomer, unassigned) [Cpd 308-En 2, N-(4-(hydroxymethyl)tetrahydro-2H-pyran-4-yl)-2-methyl-5-(1-phenylethoxy)benzofuran-3-carboxamide]: less than 1000 nM.
Under `CCC(Oc1ccc2oc(C)c(C(=O)N[C@H]3CCNC3)c2c1)c1ccccc1C(F)(F)F` (mixture of isomers) [Cpd 231, rac-2-methyl-N—((R)-pyrrolidin-3-yl)-5-(1-(2-(trifluoromethyl)phenyl)propoxy)benzofuran-3-carboxamide] stands less than 1000 nM; under `Cc1oc2ccc(OCc3ccccc3)cc2c1C(=O)N[C@@H](CO)C(N)=O` [Cpd 337, (S)—N-(1-amino-3-hydroxy-1-oxopropan-2-yl)-5-(benzyloxy)-2-methylbenzofuran-3-carboxamide], less than 1000 nM.
Next, `Cc1oc2ccc(OCc3ccccc3F)cc2c1C(=O)NC1CCN(CCO)C1=O` (single isomer, unassigned) [Cpd 311-En 2, 5-((2-Fluorobenzyl)oxy)-N-(1-(2-hydroxyethyl)-2-oxopyrrolidin-3-yl)-2-methylbenzofuran-3-carboxamide]: less than 1000 nM; `Cc1oc2ccc(OCc3ccccc3)cc2c1C(=O)N[C@H]1CCN(S(C)(=O)=O)C1` [Cpd 215, (S)-5-(benzyloxy)-2-methyl-N-(1-(methylsulfonyl)pyrrolidin-3-yl)benzofuran-3-carboxamide]: less than 1000 nM; `Cc1oc2ccc(OCc3ccccc3)cc2c1C(=O)NCC1CCC(=O)N1` (stereo not shown) [Cpd 112, 5-(benzyloxy)-2-methyl-N-((5-oxopyrrolidin-2-yl)methyl)benzofuran-3-carboxamide]: less than 1000 nM.
As for `Cc1oc2ccc(OCc3ccccc3)c(C#N)c2c1C(=O)NC1CNCC1(F)F` (single isomer, unassigned) [Cpd 297-En 2, 5-(benzyloxy)-4-cyano-N-(4,4-difluoropyrrolidin-3-yl)-2-methylbenzofuran-3-carboxamide], the IC50 fell in the range of 1000 to 20000 nM.
Under `Cc1oc2ccc(OCc3ccccc3C(F)(F)F)cc2c1C(=O)NC1CNCC1(F)F` (stereo not shown) [Cpd 240, N-(4,4-difluoropyrrolidin-3-yl)-2-methyl-5-((2-(trifluoromethyl)benzyl)oxy)benzofuran-3-carboxamide] stands less than 1000 nM.
Under `Cc1oc2ccc(OCc3cccc(F)c3F)cc2c1C(=O)NC1CNCC1(F)F` (stereo not shown) [Cpd 211, 5-((2,3-difluorobenzyl)oxy)-N-(4,4-difluoropyrrolidin-3-yl)-2-methylbenzofuran-3-carboxamide] stands less than 1000 nM; under `Cc1oc2ccc(OCc3ccccc3)cc2c1C(=O)NO` [Cpd 036, 5-(benzyloxy)-N-hydroxy-2-methylbenzofuran-3-carboxamide], less than 1000 nM; under `Cc1oc2ccc(OCc3ccccc3)cc2c1C(=O)NC1CCOC1` (stereo not shown) [Cpd 051, 5-(benzyloxy)-2-methyl-N-(tetrahydrofuran-3-yl)benzofuran-3-carboxamide], less than 1000 nM.
Next, `COCc1oc2ccc(OCc3cccc(F)c3)cc2c1C(=O)O` [Cpd 020, 5-((3-fluorobenzyl)oxy)-2-(methoxymethyl)benzofuran-3-carboxylic acid]: 1000 to 20000 nM; `Cc1oc2ccc(OCc3ccccc3)cc2c1C(=O)N[C@H]1C[C@H]2CN(C)CCN2C1` [Cpd 205, 5-(benzyloxy)-2-methyl-N-((7S,8aS)-2-methyloctahydropyrrolo[1,2-a]pyrazin-7-yl)benzofuran-3-carboxamide]: 1000 to 20000 nM.
On to `Cc1oc2ccc(OCc3ccccc3)cc2c1C(=O)N[C@H]1CCNC1` [Cpd 049, (S)-5-(benzyloxy)-2-methyl-N-(pyrrolidin-3-yl)benzofuran-3-carboxamide], for which the half-maximal inhibitory concentration (IC50) was less than 1000 nM.
Next, `COCC(Oc1ccc2oc(C)c(C(=O)N[C@@H](CO)C(N)=O)c2c1)c1ccccc1` (single isomer, unassigned) [Cpd 346-En 1]: less than 1000 nM; `Cc1oc2ccc(OCc3ccccc3)cc2c1C(=O)NC1CCC(=O)NC1` (stereo not shown) [Cpd 111, 5-(benzyloxy)-2-methyl-N-(6-oxopiperidin-3-yl)benzofuran-3-carboxamide]: 1000 to 20000 nM; `Cc1oc2c(C)cc(OCc3ccccc3)cc2c1C(=O)NC1CNCC1(F)F` (single isomer, unassigned) [Cpd 307-En 1, 5-(benzyloxy)-N-(4,4-difluoropyrrolidin-3-yl)-2,7-dimethylbenzofuran-3-carboxamide]: 1000 to 20000 nM.
